The values below are quoted from earlier work in patent publication US6846837B2, “Topical administration of basic antifungal compositions to treat fungal infections of the nails” (priority 2002, dated 2005).

The test system of one data set is onychomycosis. Particulars: standard oral treatment.
Assay in data set [1]: not given
This is another data set of the same source.

The conditions of data set [2]: forms Ca(OH)2.

With `CNC` [Dimethylamine], the pKa is reported as 10.73.

Regarding `CN(C/C=C/C#CC(C)(C)C)Cc1cccc2ccccc12` [terbinafine], in the data set on onychomycosis, the “disease-free nails, share of cases” value is on record as 35-50%.

On to `CC(C)CCN` [Isopentylamine], for which the pKa result is on record as “pKa = 10.6”.

`CN(C)C` [Trimethylamine]: the pKa is 9.81.

`O=P([O-])([O-])O.[K+].[K+]` [Potassium phosphate, dibasic]: the “pH of Aqueous Solution, in words (alkalinity)” value in data set [1] is reported as “Aqueous solution is slightly alkaline”.

For `[O]=[Ca]` [Calcium oxide], the solubility in water entry in data set [2] is given as “Soluble in water, Form Ca(OH)2”.

As for `O=B[O-].[Na+]` [Sodium metaborate], the “pH of Aqueous Solution, in words (alkalinity)” value in data set [1] was “Strongly alkaline”.

The pKa is the pH at which an ionisable group is half protonated.
